Measured values from patent USRE49022E1, “Insecticidal compounds” (SYNGENTA PARTICIPATIONS AG, priority 2013, dated 2022).

Experiments:
Assay type in all cases: in vivo
[1] = tested on: Diabrotica balteata (Corn Root Worm); test: Diabrotica balteata, artificial diet MTP test; conditions: 120 h, 200 ppm (concentration in well 18 ppm), L2 larvae, larval mortality after 5 days
Method: A 24-well microtiter plate (MTP) with artificial diet was treated with test solutions at an application rate of 200 ppm (concentration in well 18 ppm) by pipetting. After drying, the MTP's were infested with L2 larvae (6-10 per well). After an incubation period of 5 days, samples were checked for larval mortality The following compound gave at least 80% control of Diabrotica balteata: 1, 2, 3, 4, 5, 6, 7, 8, 9, 10, 11, 12, 13, 14, 15, 16, 17, 18, 19, 20, 21, 22, 23, 24, 25, 26, 27, 28, 29, 30, 31, 32, 33, 34, 35, 36, 37, 38, 39, 40, 41, 42, 43, 44, 45, 46, 47, 48, 49, 50, 51.

[2] = tested on: Myzus persicae (Green Peach Aphid); test: Myzus persicae, sunflower leaf disc spray test; conditions: foliar, 144 h, sprayed sunflower leaf discs, aphid population of mixed ages, mortality after 6 DAT
Method: Sunflower leaf discs were placed on agar in a 24-well microtiter plate and sprayed with test solutions at an application rate of 200 ppm. After drying, the leaf discs were infested with an aphid population of mixed ages. After an incubation period of 6 DAT, samples were checked for mortality.

[3] = tested on: Myzus persicae (Green Peach Aphid); test: Myzus persicae, sucrose solution / Parafilm test; conditions: 120 h, mixed with sucrose solution under Parafilm, mortality 5 days after infestation
Excerpt: Test compounds were applied by pipette into 24 well plates and mixed with Sucrose solution. Application rate: 12.5 ppm. The plates were closed with a stretched Parafilm. A plastic stencil with 24 holes is placed onto the plate and infested pea seedlings were placed directly on the Parafilm. The infested plate is closed with a gel blotting paper and another plastic stencil and then turned upside down. 5 days after infestation the samples were checked on mortality.

[4] = tested on: Plutella xylostella (Diamond Back Moth); test: Plutella xylostella, artificial diet MTP test; conditions: 144 h, 200 ppm (concentration in well 18 ppm), L2 larvae, 6 days
Method: 24-well microtiter plate (MTP) with artificial diet was treated with test solutions at an application rate of 200 ppm (concentration in well 18 ppm) by pipetting. After drying, the MTP's were infested with L2 larvae (7-12 per well). After an incubation period of 6 days, samples were checked for larval mortality and growth regulation. The following compound gave at least 80% mortality of Plutella xylostella: 1, 2, 3, 4, 5, 6, 7, 8, 9, 10, 11, 12, 13, 14, 15, 16, 17, 18, 19, 20, 21, 22, 23, 24, 25, 26, 27, 28, 29, 30, 31, 32, 33, 34, 35, 36, 37, 38, 39, 40, 41, 42, 43, 44, 45, 46, 47, 48, 49, 50.

[5] = tested on: Spodoptera littoralis (Egyptian Cotton Leafworm); test: Spodoptera littoralis, cotton leaf disc spray test; conditions: foliar, 72 h, sprayed cotton leaf discs, L1 larvae, 3 days after treatment
Excerpt: Cotton leaf discs were placed on agar in a 24-well microtiter plate and sprayed with test solutions at an application rate of 200 ppm. After drying, the leaf discs were infested with 5 L1 larvae. The samples were checked for mortality 3 days after treatment (DAT).

[6] = tested on: Tetranychus urticae (Two-Spotted Spider Mite); test: Tetranychus urticae, bean leaf disc spray test; conditions: foliar, 192 h, sprayed bean leaf discs, mite populations of mixed ages, 8 days
Excerpt: Bean leaf discs on agar in 24-well microtiter plates were sprayed with test solutions at an application rate of 200 ppm. After drying, the leaf discs are infested with mite populations of mixed ages. 8 days later, discs were checked for mortality.

[7] = tested on: Thrips tabaci (Onion Thrips); test: Thrips tabaci, sunflower leaf disc spray test; conditions: foliar, 168 h, sprayed sunflower leaf discs, mortality after 7 days
[8] = tested on: Spodoptera littoralis (Egyptian Cotton Leaf Worm); test: Spodoptera littoralis, agar / lettuce root uptake test; conditions: 144 h, mixed with agar, uptake by lettuce roots, mortality 6 days after infestation
Excerpt: Test compounds were applied by pipette into 24 well plates and mixed with agar. Application rate: 12.5 ppm. Lettuce seeds were placed on the agar and the multi well plate is closed by another plate which contains also agar. After 7 days the roots have absorbed the compound and the lettuce has grown into the lid plate. The lettuce leafs were now cut off into the lid plate. Spodoptera eggs were pipetted through a plastic stencil on a humid gel blotting paper and the plate closed with it. The samples are checked for mortality 6 days after infestation.

CCc1cc(C(F)(C(F)(F)F)C(F)(F)Cl)cc(Br)c1NC(=O)c1cccc(N(CC)C(=O)c2ccc(C#N)cc2)c1F (stereo not shown) [Compound 33]
≥ 80%: pest or weed control at 200 ppm [1] | pest or weed control at 200 ppm [2] | pest or weed control at 12.5 ppm [3] | mortality at 200 ppm [4] | mortality at 200 ppm [5] | mortality at 200 ppm [6] | pest or weed control at 200 ppm [7]

CCN(C(=O)c1ccc[n+]([O-])c1)c1cccc(C(=O)Nc2c(Br)cc(C(F)(C(F)(F)F)C(F)(F)Cl)cc2OC(F)F)c1OC (stereo not shown) [Compound 48]
≥ 80%: pest or weed control at 200 ppm [1] | pest or weed control at 200 ppm [2] | pest or weed control at 12.5 ppm [3] | mortality at 200 ppm [4] | mortality at 200 ppm [5] | pest or weed control at 12.5 ppm [8] | mortality at 200 ppm [6] | pest or weed control at 200 ppm [7]

CCc1cc(C(F)(C(F)(F)F)C(F)(F)Cl)cc(Br)c1NC(=O)c1cccc(NC(=O)c2ccncc2)c1F (stereo not shown) [Compound 17]
≥ 80%: pest or weed control at 200 ppm [1] | pest or weed control at 200 ppm [2] | pest or weed control at 12.5 ppm [3] | mortality at 200 ppm [4] | mortality at 200 ppm [5] | mortality at 200 ppm [6] | pest or weed control at 200 ppm [7]

CCc1cc(C(F)(C(F)(F)F)C(F)(F)Cl)cc(Br)c1NC(=O)c1cccc(N(CC)C(=O)c2cccnc2)c1OC (stereo not shown) [Compound 42]
≥ 80%: pest or weed control at 200 ppm [1] | pest or weed control at 200 ppm [2] | pest or weed control at 12.5 ppm [3] | mortality at 200 ppm [4] | mortality at 200 ppm [5] | mortality at 200 ppm [6] | pest or weed control at 200 ppm [7]

CCc1cc(C(F)(C(F)(F)F)C(F)(F)Cl)cc(Br)c1NC(=O)c1cccc(N(CC)C(=O)c2ccc(C#N)cc2)c1OC (stereo not shown) [Compound 34]
≥ 80%: pest or weed control at 200 ppm [1] | pest or weed control at 200 ppm [2] | pest or weed control at 12.5 ppm [3] | mortality at 200 ppm [4] | mortality at 200 ppm [5] | mortality at 200 ppm [6] | pest or weed control at 200 ppm [7]

CCc1cc(C(F)(C(F)(F)F)C(F)(F)Cl)cc(Br)c1NC(=O)c1cccc(N(CC)C(=O)c2cc[n+]([O-])cc2)c1OC (stereo not shown) [Compound 46]
≥ 80%: pest or weed control at 200 ppm [1] | pest or weed control at 200 ppm [2] | pest or weed control at 12.5 ppm [3] | mortality at 200 ppm [4] | mortality at 200 ppm [5] | mortality at 200 ppm [6] | pest or weed control at 200 ppm [7]

CCc1cc(C(F)(C(F)(F)F)C(F)(F)Cl)cc(Br)c1NC(=O)c1cccc(NC(=O)c2cccnc2)c1F (stereo not shown) [Compound 18]
≥ 80%: pest or weed control at 200 ppm [1] | pest or weed control at 200 ppm [2] | pest or weed control at 12.5 ppm [3] | mortality at 200 ppm [4] | mortality at 200 ppm [5] | mortality at 200 ppm [6] | pest or weed control at 200 ppm [7]

CCN(C(=O)c1ccncc1)c1cccc(C(=O)Nc2c(Cl)cc(C(F)(C(F)F)C(F)(F)F)cc2Br)c1OC (stereo not shown) [Compound 51, N-[3-[[2-bromo-6-chloro-4-[1-(difluoromethyl)-1,2,2,2-tetrafluoro-ethyl]phenyl]carbamoyl]-2-methoxy-phenyl]-N-ethyl-pyridine-4-carboxamide]
≥ 80%: pest or weed control at 200 ppm [1] | pest or weed control at 200 ppm [2] | pest or weed control at 12.5 ppm [3] | mortality at 200 ppm [5] | mortality at 200 ppm [6] | pest or weed control at 200 ppm [7]

CCc1cc(C(F)(C(F)(F)F)C(F)(F)Cl)cc(Br)c1NC(=O)c1cccc(NC(=O)c2cc[n+]([O-])cc2)c1F (stereo not shown) [Compound 27]
≥ 80%: pest or weed control at 200 ppm [1] | pest or weed control at 200 ppm [2] | pest or weed control at 12.5 ppm [3] | mortality at 200 ppm [4] | mortality at 200 ppm [5] | mortality at 200 ppm [6] | pest or weed control at 200 ppm [7]

CCc1cc(C(F)(C(F)(F)F)C(F)(F)Cl)cc(Br)c1NC(=O)c1cccc(NC(=O)c2ccc[n+]([O-])c2)c1F (stereo not shown) [Compound 28]
≥ 80%: pest or weed control at 200 ppm [1] | pest or weed control at 200 ppm [2] | pest or weed control at 12.5 ppm [3] | mortality at 200 ppm [4] | mortality at 200 ppm [5] | mortality at 200 ppm [6] | pest or weed control at 200 ppm [7]

CCc1cc(C(F)(C(F)(F)F)C(F)(F)Cl)cc(Br)c1NC(=O)c1cccc(N(CC)C(=O)c2ccncc2)c1F (stereo not shown) [Compound 37]
≥ 80%: pest or weed control at 200 ppm [1] | pest or weed control at 200 ppm [2] | pest or weed control at 12.5 ppm [3] | mortality at 200 ppm [4] | mortality at 200 ppm [5] | mortality at 200 ppm [6] | pest or weed control at 200 ppm [7]

CCc1cc(C(F)(C(F)(F)F)C(F)(F)Cl)cc(Br)c1NC(=O)c1cccc(NC(=O)c2ccc(C#N)cc2)c1OC (stereo not shown) [Compound 22]
≥ 80%: pest or weed control at 200 ppm [1] | pest or weed control at 200 ppm [2] | pest or weed control at 12.5 ppm [3] | mortality at 200 ppm [4] | mortality at 200 ppm [5] | mortality at 200 ppm [6] | pest or weed control at 200 ppm [7]

CCc1cc(C(F)(C(F)(F)F)C(F)(F)Cl)cc(Br)c1NC(=O)c1cccc(NC(=O)c2cc[n+]([O-])cc2)c1OC (stereo not shown) [Compound 29]
≥ 80%: pest or weed control at 200 ppm [1] | pest or weed control at 200 ppm [2] | pest or weed control at 12.5 ppm [3] | mortality at 200 ppm [4] | mortality at 200 ppm [5] | mortality at 200 ppm [6] | pest or weed control at 200 ppm [7]

CCc1cc(C(F)(C(F)(F)F)C(F)(F)Cl)cc(Br)c1NC(=O)c1cccc(NC(=O)c2ccncc2)c1OC (stereo not shown) [Compound 20]
≥ 80%: pest or weed control at 200 ppm [1] | pest or weed control at 200 ppm [2] | pest or weed control at 12.5 ppm [3] | mortality at 200 ppm [4] | mortality at 200 ppm [5] | mortality at 200 ppm [6] | pest or weed control at 200 ppm [7]

CCc1cc(C(F)(C(F)(F)F)C(F)(F)Cl)cc(Br)c1NC(=O)c1cccc(N(CC)C(=O)c2ccc[n+]([O-])c2)c1F (stereo not shown) [Compound 49]
≥ 80%: pest or weed control at 200 ppm [1] | pest or weed control at 200 ppm [2] | pest or weed control at 12.5 ppm [3] | mortality at 200 ppm [4] | mortality at 200 ppm [5] | mortality at 200 ppm [6] | pest or weed control at 200 ppm [7]

CCc1cc(C(F)(C(F)(F)F)C(F)(F)Cl)cc(Br)c1NC(=O)c1cccc(N(CC)C(=O)c2cc[n+]([O-])cc2)c1F (stereo not shown) [Compound 45]
≥ 80%: pest or weed control at 200 ppm [1] | pest or weed control at 200 ppm [2] | pest or weed control at 12.5 ppm [3] | mortality at 200 ppm [4] | mortality at 200 ppm [5] | mortality at 200 ppm [6] | pest or weed control at 200 ppm [7]

CCc1cc(C(F)(C(F)(F)F)C(F)(F)Cl)cc(Br)c1NC(=O)c1cccc(NC(=O)c2ccc[n+]([O-])c2)c1OC (stereo not shown) [Compound 30]
≥ 80%: pest or weed control at 200 ppm [1] | pest or weed control at 200 ppm [2] | pest or weed control at 12.5 ppm [3] | mortality at 200 ppm [4] | mortality at 200 ppm [5] | mortality at 200 ppm [6] | pest or weed control at 200 ppm [7]

CCc1cc(C(F)(C(F)(F)F)C(F)(F)Cl)cc(Br)c1NC(=O)c1cccc(NC(=O)c2ccc(C#N)cc2)c1F (stereo not shown) [Compound 19]
≥ 80%: pest or weed control at 200 ppm [1] | pest or weed control at 200 ppm [2] | pest or weed control at 12.5 ppm [3] | mortality at 200 ppm [4] | mortality at 200 ppm [5] | mortality at 200 ppm [6] | pest or weed control at 200 ppm [7]

CCc1cc(C(F)(C(F)(F)F)C(F)(F)Cl)cc(Br)c1NC(=O)c1cccc(N(CC)C(=O)c2ccncc2)c1OC (stereo not shown) [Compound 38]
≥ 80%: pest or weed control at 200 ppm [1] | pest or weed control at 200 ppm [2] | pest or weed control at 12.5 ppm [3] | mortality at 200 ppm [4] | mortality at 200 ppm [5] | mortality at 200 ppm [6] | pest or weed control at 200 ppm [7]
